The target in test [1] is T1, Estrogen receptor (Homo sapiens, UniProt P03372).
T1 sequence (P03372 whole entry): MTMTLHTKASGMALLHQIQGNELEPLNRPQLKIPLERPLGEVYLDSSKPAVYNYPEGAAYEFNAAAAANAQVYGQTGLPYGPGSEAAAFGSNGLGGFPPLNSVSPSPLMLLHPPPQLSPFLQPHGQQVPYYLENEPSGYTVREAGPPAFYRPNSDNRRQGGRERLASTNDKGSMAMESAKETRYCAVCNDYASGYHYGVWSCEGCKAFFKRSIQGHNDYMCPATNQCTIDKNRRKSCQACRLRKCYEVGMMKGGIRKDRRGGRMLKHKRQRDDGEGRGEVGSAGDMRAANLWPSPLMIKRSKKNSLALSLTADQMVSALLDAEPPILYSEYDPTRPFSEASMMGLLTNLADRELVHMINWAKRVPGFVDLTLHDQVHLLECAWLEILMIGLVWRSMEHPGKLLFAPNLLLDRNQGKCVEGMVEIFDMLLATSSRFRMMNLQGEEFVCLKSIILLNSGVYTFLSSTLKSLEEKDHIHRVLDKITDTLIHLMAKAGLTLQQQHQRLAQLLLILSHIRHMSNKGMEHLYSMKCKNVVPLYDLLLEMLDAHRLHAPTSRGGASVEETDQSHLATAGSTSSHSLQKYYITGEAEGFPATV
The test is classed as functional.

A further test addresses T2, Glucocorticoid receptor (Homo sapiens, UniProt P04150).
T2 sequence (P04150 whole entry): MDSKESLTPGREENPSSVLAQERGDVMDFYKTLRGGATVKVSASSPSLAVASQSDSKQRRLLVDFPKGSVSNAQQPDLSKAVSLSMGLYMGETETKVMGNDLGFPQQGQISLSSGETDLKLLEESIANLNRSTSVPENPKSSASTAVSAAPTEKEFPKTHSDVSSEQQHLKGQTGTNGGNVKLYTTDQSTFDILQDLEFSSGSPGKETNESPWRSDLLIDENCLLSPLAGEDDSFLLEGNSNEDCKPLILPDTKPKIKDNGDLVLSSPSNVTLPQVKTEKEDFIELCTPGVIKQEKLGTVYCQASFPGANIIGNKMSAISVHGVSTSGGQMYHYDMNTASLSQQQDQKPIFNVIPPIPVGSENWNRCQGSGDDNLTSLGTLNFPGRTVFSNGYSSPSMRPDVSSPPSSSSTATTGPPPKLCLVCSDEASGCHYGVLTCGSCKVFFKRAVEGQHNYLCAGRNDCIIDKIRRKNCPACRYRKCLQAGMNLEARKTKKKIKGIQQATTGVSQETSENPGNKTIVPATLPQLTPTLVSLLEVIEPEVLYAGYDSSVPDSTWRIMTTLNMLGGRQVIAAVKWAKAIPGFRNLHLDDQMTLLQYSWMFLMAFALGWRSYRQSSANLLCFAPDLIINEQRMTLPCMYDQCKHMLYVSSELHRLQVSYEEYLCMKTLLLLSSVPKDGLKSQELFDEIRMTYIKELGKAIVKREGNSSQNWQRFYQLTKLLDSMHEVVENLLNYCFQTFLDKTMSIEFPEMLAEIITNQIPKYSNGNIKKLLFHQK
It is filed as functional.

For test [2], the target named is T1, Estrogen receptor. The test is classed as functional. This is another data set of the same source.
Test [3] deals with Gamma-aminobutyric acid receptor subunit alpha-1 (Rattus norvegicus, UniProt P62813).
The next test has as its target T3, Androgen receptor (Homo sapiens, UniProt P10275).
T3 sequence (P10275 whole entry): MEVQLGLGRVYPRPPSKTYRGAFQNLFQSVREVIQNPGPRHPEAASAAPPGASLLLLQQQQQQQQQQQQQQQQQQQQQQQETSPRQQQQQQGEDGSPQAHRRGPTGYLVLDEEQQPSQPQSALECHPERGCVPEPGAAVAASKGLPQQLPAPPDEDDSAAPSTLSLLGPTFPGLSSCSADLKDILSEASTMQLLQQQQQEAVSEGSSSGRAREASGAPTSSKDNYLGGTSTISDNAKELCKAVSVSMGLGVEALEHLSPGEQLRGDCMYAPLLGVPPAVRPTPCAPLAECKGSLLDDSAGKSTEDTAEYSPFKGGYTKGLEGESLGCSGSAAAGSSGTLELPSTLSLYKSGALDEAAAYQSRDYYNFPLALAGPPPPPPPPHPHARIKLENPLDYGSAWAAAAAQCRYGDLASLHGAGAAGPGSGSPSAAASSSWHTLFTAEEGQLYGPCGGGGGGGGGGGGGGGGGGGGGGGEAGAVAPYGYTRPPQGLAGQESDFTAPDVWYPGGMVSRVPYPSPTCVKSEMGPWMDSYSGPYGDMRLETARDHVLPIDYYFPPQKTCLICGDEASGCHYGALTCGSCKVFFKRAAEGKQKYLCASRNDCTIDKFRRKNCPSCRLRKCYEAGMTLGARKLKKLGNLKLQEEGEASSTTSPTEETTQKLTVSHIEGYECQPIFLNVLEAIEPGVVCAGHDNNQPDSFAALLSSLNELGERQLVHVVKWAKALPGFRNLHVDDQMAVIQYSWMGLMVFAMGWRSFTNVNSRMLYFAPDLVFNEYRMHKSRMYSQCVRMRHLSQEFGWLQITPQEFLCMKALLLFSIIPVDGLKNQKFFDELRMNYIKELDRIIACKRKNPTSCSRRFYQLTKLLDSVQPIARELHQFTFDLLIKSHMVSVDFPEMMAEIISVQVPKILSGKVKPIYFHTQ

The target of test [4] is T4, Alpha-1A adrenergic receptor (Homo sapiens, UniProt P35348).
T4 sequence (P35348 whole entry): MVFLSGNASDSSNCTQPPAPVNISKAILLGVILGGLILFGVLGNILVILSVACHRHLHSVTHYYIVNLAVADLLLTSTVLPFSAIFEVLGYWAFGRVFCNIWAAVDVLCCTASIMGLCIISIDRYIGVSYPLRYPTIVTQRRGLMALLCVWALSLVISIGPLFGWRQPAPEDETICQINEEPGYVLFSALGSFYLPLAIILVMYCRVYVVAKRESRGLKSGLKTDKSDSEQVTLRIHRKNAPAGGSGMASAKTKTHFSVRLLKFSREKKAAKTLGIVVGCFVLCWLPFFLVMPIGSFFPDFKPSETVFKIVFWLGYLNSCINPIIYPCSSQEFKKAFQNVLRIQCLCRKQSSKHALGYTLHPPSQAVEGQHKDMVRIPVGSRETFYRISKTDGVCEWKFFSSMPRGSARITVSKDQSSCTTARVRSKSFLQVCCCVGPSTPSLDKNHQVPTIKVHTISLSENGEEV

Test [5] concerns the target Gamma-aminobutyric acid receptor subunit alpha-1/alpha-2/beta-2/gamma-2 (Homo sapiens, UniProt P14867+P18507+P47869+P47870). The test is classed as protein-complex assay.
Further: assay procedure not described here.

Gamma-aminobutyric acid receptor subunit alpha-1/alpha-2/beta-2/gamma-2, sequence (P14867 whole entry): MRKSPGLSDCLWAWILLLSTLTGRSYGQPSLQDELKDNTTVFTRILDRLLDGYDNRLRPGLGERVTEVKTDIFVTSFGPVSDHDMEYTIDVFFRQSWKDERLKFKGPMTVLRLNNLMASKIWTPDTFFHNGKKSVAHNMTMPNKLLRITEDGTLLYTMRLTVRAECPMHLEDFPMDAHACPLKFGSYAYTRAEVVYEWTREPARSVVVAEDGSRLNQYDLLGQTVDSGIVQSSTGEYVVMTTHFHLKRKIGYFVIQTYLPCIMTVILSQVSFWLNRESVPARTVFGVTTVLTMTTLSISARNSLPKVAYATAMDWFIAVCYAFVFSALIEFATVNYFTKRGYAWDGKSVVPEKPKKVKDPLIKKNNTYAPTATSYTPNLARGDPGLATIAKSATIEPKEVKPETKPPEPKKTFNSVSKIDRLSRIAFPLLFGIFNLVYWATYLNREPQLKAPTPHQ
Gamma-aminobutyric acid receptor subunit alpha-1/alpha-2/beta-2/gamma-2, sequence (P47870 whole entry): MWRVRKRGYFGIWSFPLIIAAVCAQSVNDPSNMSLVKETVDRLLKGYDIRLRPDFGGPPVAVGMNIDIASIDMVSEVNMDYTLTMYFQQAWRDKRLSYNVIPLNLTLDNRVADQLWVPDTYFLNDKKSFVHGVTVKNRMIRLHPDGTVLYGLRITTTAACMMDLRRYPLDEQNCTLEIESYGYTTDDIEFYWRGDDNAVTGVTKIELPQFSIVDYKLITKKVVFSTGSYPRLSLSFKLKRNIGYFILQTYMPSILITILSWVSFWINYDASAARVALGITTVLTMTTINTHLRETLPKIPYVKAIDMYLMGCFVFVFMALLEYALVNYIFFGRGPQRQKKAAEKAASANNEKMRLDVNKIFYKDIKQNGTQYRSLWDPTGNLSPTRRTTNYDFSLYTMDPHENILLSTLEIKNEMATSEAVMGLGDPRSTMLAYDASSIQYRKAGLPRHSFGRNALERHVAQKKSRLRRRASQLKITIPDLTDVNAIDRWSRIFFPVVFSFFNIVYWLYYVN
Gamma-aminobutyric acid receptor subunit alpha-1/alpha-2/beta-2/gamma-2, sequence (P18507 whole entry): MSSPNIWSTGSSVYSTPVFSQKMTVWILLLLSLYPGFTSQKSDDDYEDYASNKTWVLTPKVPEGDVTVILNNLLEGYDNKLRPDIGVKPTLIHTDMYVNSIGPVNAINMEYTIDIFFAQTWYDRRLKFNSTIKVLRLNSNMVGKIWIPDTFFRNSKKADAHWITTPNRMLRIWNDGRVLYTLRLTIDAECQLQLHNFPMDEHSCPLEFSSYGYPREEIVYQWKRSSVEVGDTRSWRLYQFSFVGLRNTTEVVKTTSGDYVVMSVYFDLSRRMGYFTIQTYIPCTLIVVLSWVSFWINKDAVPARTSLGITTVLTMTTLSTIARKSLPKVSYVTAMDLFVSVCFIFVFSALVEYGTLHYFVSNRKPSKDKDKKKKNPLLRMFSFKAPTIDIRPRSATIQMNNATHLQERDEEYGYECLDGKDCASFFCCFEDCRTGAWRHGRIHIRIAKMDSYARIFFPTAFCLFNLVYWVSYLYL
Gamma-aminobutyric acid receptor subunit alpha-1/alpha-2/beta-2/gamma-2, sequence (P47869 whole entry): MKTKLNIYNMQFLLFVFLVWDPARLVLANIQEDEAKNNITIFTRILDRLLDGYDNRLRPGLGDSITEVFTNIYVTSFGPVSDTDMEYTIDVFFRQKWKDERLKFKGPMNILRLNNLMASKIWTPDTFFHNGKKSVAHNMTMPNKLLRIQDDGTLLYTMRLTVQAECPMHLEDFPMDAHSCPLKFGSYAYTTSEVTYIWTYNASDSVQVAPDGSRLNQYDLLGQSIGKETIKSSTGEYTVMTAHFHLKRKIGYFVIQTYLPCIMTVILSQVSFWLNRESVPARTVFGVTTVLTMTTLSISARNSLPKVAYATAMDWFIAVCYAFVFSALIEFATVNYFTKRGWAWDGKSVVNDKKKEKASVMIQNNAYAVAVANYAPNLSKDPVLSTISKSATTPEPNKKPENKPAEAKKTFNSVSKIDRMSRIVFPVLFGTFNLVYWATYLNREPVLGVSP
Gamma-aminobutyric acid receptor subunit alpha-1, sequence (P62813 whole entry): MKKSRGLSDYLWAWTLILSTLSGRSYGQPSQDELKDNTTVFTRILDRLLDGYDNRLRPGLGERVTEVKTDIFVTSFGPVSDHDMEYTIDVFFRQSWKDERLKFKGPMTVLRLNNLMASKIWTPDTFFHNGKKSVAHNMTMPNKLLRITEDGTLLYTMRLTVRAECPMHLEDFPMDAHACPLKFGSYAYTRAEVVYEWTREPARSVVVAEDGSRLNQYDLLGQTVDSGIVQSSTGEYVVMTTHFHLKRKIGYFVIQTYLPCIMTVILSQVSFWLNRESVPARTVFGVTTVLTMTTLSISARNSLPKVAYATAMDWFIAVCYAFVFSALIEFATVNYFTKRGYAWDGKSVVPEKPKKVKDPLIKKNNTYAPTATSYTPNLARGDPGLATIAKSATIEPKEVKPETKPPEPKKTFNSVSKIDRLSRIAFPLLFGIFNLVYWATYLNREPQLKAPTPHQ

In the case of `CCOCC(O)COc1ccc(NC(=O)CC[S+](C)C)cc1` (configuration not stated), the AC50 at Estrogen receptor [1], on Glucocorticoid receptor and at Estrogen receptor [2] was over 30 µM each time.

In turn, `CCC[C@@]1(CCc2ccccc2)CC(O)=C([C@H](CC)c2cccc(NS(=O)(=O)c3ccc(C(F)(F)F)cn3)c2)C(=O)O1` displayed a half-maximal activity concentration (AC50) on Glucocorticoid receptor of over 30 µM.

In the case of `CN1CC2c3ccccc3Oc3ccc(Cl)cc3C2C1` (configuration not stated) [ASENAPINE], the concentration at half-maximal activity (AC50) at Estrogen receptor [1], on Glucocorticoid receptor and on Estrogen receptor [2] was over 30 µM in each case.

In the case of `Cn1cnc2c(F)c(Nc3ccc(Br)cc3F)c(C(=O)NOCCO)cc21` [BINIMETINIB], the AC50 on Estrogen receptor [1], on Glucocorticoid receptor and at Estrogen receptor [2] was over 30 µM in each case.

For `C[C@H](CCC(=O)O)[C@H]1CC[C@H]2[C@@H]3[C@H](O)C[C@@H]4C[C@H](O)CC[C@]4(C)[C@H]3CC[C@]12C` [CHENODIOL], the concentration at half-maximal activity (AC50) on Estrogen receptor [1] and on Estrogen receptor [2] was over 30 µM in each case.

For `O=C(O)[C@H]1/C(=C/CO)O[C@@H]2CC(=O)N21` [CLAVULANIC ACID], the concentration at half-maximal activity (AC50) at Estrogen receptor [1], on Glucocorticoid receptor and at Estrogen receptor [2] was over 30 µM in each case.

Regarding `CC(C)/N=c1\cc2n(-c3ccc(Cl)cc3)c3ccccc3nc-2cc1Nc1ccc(Cl)cc1` [CLOFAZIMINE], the AC50 at Glucocorticoid receptor was over 30 µM.

In the case of `C[C@H](Nc1ncnc2[nH]cnc12)c1cc2cccc(Cl)c2c(=O)n1-c1ccccc1` [DUVELISIB], the AC50 (on Estrogen receptor [1]; at Glucocorticoid receptor; on Estrogen receptor [2]; in test [3]; at Androgen receptor) was over 30 µM each time.

As to `NCC1(CC(=O)O)CCCCC1` [GABAPENTIN], the AC50 in test [4] was over 10 µM; at Glucocorticoid receptor, over 30 µM; in test [5], over 30 µM.

Regarding `C[C@@H](O)[C@H]1C(=O)N2C(C(=O)O)=C(SCCN=CN)C[C@H]12` [IMIPENEM ANHYDROUS], the AC50 at Estrogen receptor [1], at Glucocorticoid receptor and at Estrogen receptor [2] was over 300 µM each time.

On to `O=C1[C@@H]2[C@H]3CC[C@H](C3)[C@@H]2C(=O)N1C[C@@H]1CCCC[C@H]1CN1CCN(c2nsc3ccccc23)CC1` [LURASIDONE], for which the half-maximal activity concentration (AC50) at Estrogen receptor [1] was over 30 µM; at Glucocorticoid receptor, over 10 µM; on Estrogen receptor [2], over 30 µM; in test [5] it was over 30 µM; at Androgen receptor, over 30 µM.

As for `CO[C@@H]1[C@@H](OC(N)=O)[C@@H](O)[C@H](Oc2ccc3c(O)c(NC(=O)c4ccc(O)c(CC=C(C)C)c4)c(=O)oc3c2C)OC1(C)C` [NOVOBIOCIN], the AC50 at Estrogen receptor [1], at Glucocorticoid receptor and on Estrogen receptor [2] was over 30 µM each time.

As to `CC(=O)SCC(Cc1ccccc1)C(=O)NCC(=O)OCc1ccccc1` (configuration not stated) [RACECADOTRIL], the AC50 in test [4] was over 10 µM; at Glucocorticoid receptor, 6.3 µM.

For `COc1cc2c(cc1OC)C1CC(=O)C(CC(C)C)CN1CC2` (configuration not stated) [TETRABENAZINE], the AC50 on Estrogen receptor [1] and at Estrogen receptor [2] was over 30 µM each time.

In the case of `CC(C)(CO)c1cc2cc(NC(=O)C3(c4ccc5c(c4)OC(F)(F)O5)CC3)c(F)cc2n1C[C@@H](O)CO` [TEZACAFTOR], the concentration at half-maximal activity (AC50) at Estrogen receptor [1], at Glucocorticoid receptor and at Estrogen receptor [2] was over 30 µM throughout.

Turning to `Cc1c(C)c2c(c(C)c1O)CCC(C)(COc1ccc(CC3SC(=O)NC3=O)cc1)O2` (configuration not stated) [TROGLITAZONE], the AC50 in test [4] is 12.5 µM; on Estrogen receptor [1], over 30 µM; at Estrogen receptor [2] it was over 30 µM; in test [5], over 3 µM; on Androgen receptor, 5.72 µM.

On to `c1cnc2cc3c(cc2n1)[C@@H]1CNC[C@H]3C1` [VARENICLINE], for which the figures for the concentration at half-maximal activity (AC50) on Estrogen receptor [1] and on Estrogen receptor [2] were 4.6 µM and over 30 µM, respectively.

On to `Nc1c2c(nc3ccccc13)CCCC2O` (configuration not stated) [VELNACRINE], for which the concentration at half-maximal activity (AC50) is over 10 µM on Estrogen receptor [1], 14 µM on Glucocorticoid receptor and over 30 µM on Estrogen receptor [2].

(Values after ChEMBL document CHEMBL5291721, “A preclinical secondary pharmacology resource illuminates target-adverse drug reaction associations of marketed drugs” (Nat Commun, 2023).)
